Columns and labels:
[1] = system: patients with erosive gastroesophageal reflux disease; experiment: Phase 2 clinical trial, randomized, double-blind, active-controlled: healing of mucosal breaks and symptoms; format: in vivo, human; conditions: for overall healing rate, number of subjects whose mucosal breaks were completely healed / overall healing rate, proportion of subjects whose mucosal breaks were completely healed: H. pylori-positive and -negative groups together
Description: H. pylori testing was performed by 13C-urea breath test (13C-UBT), gastroscopy (Campylobacter-like organism test, CLO), or tissue biopsy to confirm H. pylori positivity/negativity. The testing was performed at the screening visit (Visit 1) or the randomization visit (Visit 2), and results from the same institution within 29 days prior to the randomization visit (Visit 2) could be substituted. This clinical trial was a randomized, double-blind, active-controlled, multicenter, phase 2 clinical trial targeting patients with erosive gastroesophageal reflux disease. After the subjects gave written consent to participate in the clinical trial, a screening test was conducted. When the subjects were taking drugs that could affect the gastric mucosa at the time of screening, an upper gastrointestinal endoscopy was performed after a 2-week drug-free period (a 4-week drug-free period for potassium-competitive acid blockers (P-CABs) or proton pump inhibitors (PPIs)). […] At this time, the subjects were stratified by grade (A, B, C, D) according to the LA classification system classified by upper gastrointestinal endoscopy. Randomly assigned subjects took the clinical trial drug once a day according to the assigned administration group for four weeks. After four weeks of administration of the clinical trial drug, the subjects visited the clinical trial institution to undergo an upper gastrointestinal endoscopy to assess whether they were healed. Healed subjects underwent a Safety Follow-Up (F/U) two weeks later, and unhealed subjects were administered the clinical trial drug for additional four weeks (a total of 8 weeks of administration) and visited the clinical trial institution to undergo an upper gastrointestinal endoscopy. […] Days of achieving complete remission (CR, disappearance of heartburn and acid reflux for seven days) after the administration of the clinical trial drug • D. Proportion of symptom-free days (heartburn, acid reflux, heartburn/acid reflux) for 4 and 8 weeks after the administration of the clinical trial drug (daytime, nighttime, daytime/nighttime) • ③ Changes in frequency and severity of major symptoms at week 4 and week 8 of the clinical trial drug administration compared to the gastroesophageal reflux disease questionnaire (RDQ) baseline • ④ Changes in total score at week 4 and week 8 of the clinical trial drug administration compared to the GERD Health-Related Quality of Life (GERD-HRQL) baseline The proportion of subjects whose erosions recovered to normal mucosa from the first administration of the clinical trial drug up to week 8 and the two-sided 95% confidence intervals were presented by administration group. […] Days of achieving CR (disappearance of heartburn and acid reflux for seven days) after the administration of the clinical trial drug: When the symptom score is 0 for seven consecutive days after the first administration of the clinical trial drug, it was defined as CR (disappearance of heartburn and acid reflux for seven days), and the event was based on the first CR. When there was no CR, the case was considered as censoring.

[2] = system: patients with erosive gastroesophageal reflux disease; experiment: Phase 3 clinical trial: healing rate of mucosal breaks in H. pylori-positive subjects; format: in vivo, human
Description: H. pylori testing was performed by 13C-UBT, gastroscopy (Campylobacter-like organism test, CLO), or tissue biopsy to confirm H. pylori positivity/negativity. The testing was performed at the screening visit (Visit 1) or the randomization visit (Visit 2), and results from the same institution within 29 days prior to the randomization visit (Visit 2) could be substituted. Those who voluntarily agreed to participate in this clinical trial underwent a screening test through a screening visit, and only eligible subjects were allowed to participate in the clinical trial based on the inclusion/exclusion criteria. Eligible subjects were randomly assigned to the test group or control group and received the clinical trial drug according to the assigned group at the baseline visit (V2). […] [Table 10] The cumulative healing rate of mucosal breaks according to the presence or absence of H. pylori infection refers to the proportion of subjects whose mucosal breaks were healed by 4 weeks after the administration of the clinical trial drug on endoscopic examination. The frequency and percentage of healing rates of mucosal breaks at week 4 after the administration of the clinical trial drug were presented by administration group according to the presence or absence of H. pylori infection. The differences between the administration groups (test group-control group) were analyzed using the Cochran-Mantel-Haenszel method corrected with the baseline LA classification method as a stratification factor, and the 95% confidence intervals for the differences were presented.

[3] = system: Helicobacter pylori SS1 (mouse colonizing strain); experiment: Antibiotic susceptibility testing by microdilution (MIC and MBC), CLSI guideline; format: cell-based; conditions: lowest concentration with no growth after spotting on antibiotic-free agar, Table 4 prints no unit (method concentrations in µg/mL)
Description: Helicobacter pylori SS1 (mouse colonizing strain): A strain known as Sydney strain. The strain is CagA-positive and VacA-positive and has been confirmed to infect and colonize in C57BL/6 mice. The strain is used in animal testing. The medium was prepared using Müller-Hinton broth (MH, Difco Inc., Sparks, MD, USA) [w/7% differentiation medium (Sigma CO., LTD., St. Louis, USA), 0.4% isovitalex (BBL Inc., Sparks, MD, USA)]. An antibiotic susceptibility testing was performed using the microdilution method according to the CLSI guideline. Two-fold serial dilution was performed in 12 steps in a 48-well plate with the highest concentration of 128 µg/mL for amocixillin and clarithromycin and 256 µg/mL for omeprazole. The bacteria were inoculated into wells containing only medium without antibiotics to prepare the positive control group, and the wells containing only medium without antibiotics or inoculated bacteria were used as the negative control group. The concentration range of the test substances, zastaprazan (JP-1366) and fexuprazan, was determined through preliminary experiments. […] The lowest concentration at which no bacterial growth was observed was determined as the MIC. […] The lowest concentration at which no bacteria growth occurred was determined as the MBC. […] All tests were performed in duplicate, and the results were determined by conducting the experiments in triplicate.

Structure (SMILES)	Healing rate, (%) ([1]; H. pylori-negative group, week 8, 40 mg once a day, N=41)	overall healing rate, number of subjects whose mucosal breaks were completely healed ([1]; week 4, 40 mg once a day, of 49 people)	Number of healed subjects, (%) ([2]; full analysis set (FAS), week 4, 40 mg once a day, 25 subjects)	Healing rate, (%) ([1]; H. pylori-negative group, week 4, 10 mg once a day, N=41)	Healing rate, (%) ([1]; H. pylori-negative group, week 4, 20 mg once a day, N=42)	Healing rate, (%) ([1]; H. pylori-negative group, week 8, 10 mg once a day, N=41)	Healing rate, (%) ([1]; H. pylori-negative group, week 8, 20 mg once a day, N=42)	overall healing rate, proportion of subjects whose mucosal breaks were completely healed ([1]; week 4, 10 mg once a day, 48 people)	overall healing rate, number of subjects whose mucosal breaks were completely healed ([1]; week 4, 10 mg once a day, of 48 people)	overall healing rate, proportion of subjects whose mucosal breaks were completely healed ([1]; week 4, 20 mg once a day, 47 people)	overall healing rate, number of subjects whose mucosal breaks were completely healed ([1]; week 4, 20 mg once a day, of 47 people)	Healing rate, (%) ([1]; H. pylori-positive group, week 4, 10 mg once a day, N=7)	Healing rate, (%) ([1]; H. pylori-positive group, week 4, 20 mg once a day, N=5, citrate salt)	Healing rate, (%) ([1]; H. pylori-positive group, week 8, 10 mg once a day, N=7)	Healing rate, (%) ([1]; H. pylori-positive group, week 8, 20 mg once a day, N=5, citrate salt)	MBC [3]	Number of healed subjects, (%) ([2]; full analysis set (FAS), week 4, 20 mg once a day, 28 subjects)	Number of healed subjects, (%) ([2]; per protocol set (PPS), week 4, 20 mg once a day, 26 subjects)
COc1ccc2nc([S@@+]([O-])Cc3ncc(C)c(OC)c3C)[nH]c2c1 [Esomeprazole, Esomeprazole magnesium trihydrate, reference compound]	97.56%	44 people	80.00%	–	–	–	–	–	–	–	–	–	–	–	–	–	–	–
Cc1cccc(C)c1CNc1cc(C(=O)N2CCC2)cn2c(C)c(C)nc12.O=C(O)CC(O)(CC(=O)O)C(=O)O [JP-1366, azetidin-1-yl{8-[(2,6-dimethylbenzyl)amino]-2,3-dimethylimidazo[1,2-a]pyridin-6-yl}methanone citrate salt]	–	–	–	95.12%	90.48%	97.56%	97.62%	93.75%	45 people	91.49%	43 people	85.71%	100%	100.00%	100%	16~323	96.43%	100.00%

Reference: patent EP4817613A1, “COMPOSITION FOR ERADICATING HELICOBACTER PYLORI COMPRISING ZASTAPRAZAN OR PHARMACEUTICALLY ACCEPTABLE SALT THEREOF” (Jeil Pharmaceutical Co., Ltd., priority 2023, dated 2025)
